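Step 1: Grow cells in 96-well plates. Step 2: Expose to compound for 48 hours at 5 concentrations. Step 3: Interpolate endpoints linearly; if unreached, use highest concentration. The concentration for 50% growth inhibition is given as GI50.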 Activity calls are given as the source filed them. Rule as the data show it: active = GI50 up to about 1.1 µM and inactive = higher. Where a SMILES comes first, the peptide text is derived from it. [ ]: non-standard residue; d: D form. The star is where a group is joined. Phe(4-NO2) = N[CH](Cc1ccc([N+](=O)[O-])cc1)C(=O)O; Cbz = O=C(OCc1ccccc1)*
How the values were obtained:
Assay in all cases: inhibition of tumour cell growth, NCI panel, 48 h
UACC-257 = tested on: UACC-257
SNB-75 = tested on: SNB-75
U-251 = tested on: U-251
OVCAR-4 = tested on: OVCAR-4
HT-29 = tested on: HT-29
MCF7 = tested on: MCF7
HOP-62 = tested on: HOP-62
SF-268 = tested on: SF-268
786-0 = tested on: 786-0
ACHN = tested on: ACHN
LOX IMVI = tested on: LOX IMVI
MDA-MB-435 = tested on: MDA-MB-435
RPMI-8226 = tested on: RPMI-8226
PC-3 = tested on: PC-3
UACC-62 = tested on: UACC-62
KM12 = tested on: KM12
Malme-3M = tested on: Malme-3M
SK-MEL-5 = tested on: SK-MEL-5
A498 = tested on: A498

Measured: GI50

CN(C)c1ccc(/C=C(\C#N)c2nc(-c3cc4ccccc4oc3=O)cs2)cc1
inactive: UACC-257 > 50 µM | SNB-75 1.72 µM | U-251 6.89 µM | OVCAR-4 24.9 µM | HT-29 > 50 µM | MCF7 > 50 µM | HOP-62 5.93 µM | SF-268 21 µM | 786-0 7.23 µM | ACHN 13.3 µM | LOX IMVI > 50 µM | MDA-MB-435 > 50 µM | RPMI-8226 > 50 µM | PC-3 > 50 µM | UACC-62 8.61 µM | KM12 > 50 µM | Malme-3M 4.65 µM | SK-MEL-5 > 50 µM

COc1cc(/C=N/n2c(C)n[nH]c2=O)cc(OC)c1OC
inactive: UACC-257 > 100 µM | SNB-75 > 100 µM | U-251 > 100 µM | OVCAR-4 > 100 µM | HT-29 90.4 µM | MCF7 > 100 µM | HOP-62 > 100 µM | SF-268 > 100 µM | 786-0 > 100 µM | ACHN > 100 µM | MDA-MB-435 62.5 µM | PC-3 > 100 µM | UACC-62 63.1 µM | KM12 60.1 µM | Malme-3M > 100 µM | A498 23.4 µM

CC(C)(C)NCC(O)c1ccc(O)c(CO)n1 (configuration not stated)
inactive: UACC-257 > 100 µM | SNB-75 > 100 µM | U-251 > 100 µM | OVCAR-4 > 100 µM | HT-29 > 100 µM | MCF7 > 100 µM | HOP-62 > 100 µM | SF-268 > 100 µM | 786-0 > 100 µM | ACHN > 100 µM | LOX IMVI > 100 µM | MDA-MB-435 > 100 µM | RPMI-8226 > 100 µM | PC-3 > 100 µM | UACC-62 > 100 µM | KM12 > 100 µM | A498 > 100 µM | SK-MEL-5 > 100 µM

N#Cc1nc2cc(Cl)ccc2nc1N1CCN(c2ccc([N+](=O)[O-])cc2)CC1
inactive: UACC-257 > 100 µM | SNB-75 > 100 µM | U-251 > 100 µM | OVCAR-4 > 100 µM | HT-29 > 100 µM | MCF7 > 100 µM | HOP-62 > 100 µM | SF-268 > 100 µM | 786-0 > 100 µM | ACHN > 100 µM | MDA-MB-435 > 100 µM | RPMI-8226 > 100 µM | PC-3 > 100 µM | UACC-62 > 100 µM | KM12 > 100 µM | A498 > 100 µM | SK-MEL-5 > 100 µM

CN(C)C1(N(C)C)Oc2c(c(=O)n(C)c(=O)n2C)C(c2ccccc2)C1(F)F (configuration not stated)
inactive: UACC-257 > 100 µM | SNB-75 > 100 µM | U-251 > 100 µM | OVCAR-4 > 100 µM | MCF7 > 100 µM | HOP-62 > 100 µM | SF-268 > 100 µM | 786-0 > 100 µM | ACHN > 100 µM | LOX IMVI > 100 µM | MDA-MB-435 > 100 µM | RPMI-8226 > 100 µM | PC-3 > 100 µM | UACC-62 > 100 µM | KM12 > 100 µM | A498 > 100 µM | SK-MEL-5 > 100 µM

O=C(/C=C\c1ccccc1)N1CCc2ccccc2C1
inactive: UACC-257 38.9 µM | SNB-75 52.7 µM | U-251 80.7 µM | OVCAR-4 93.1 µM | HT-29 51.4 µM | MCF7 49.7 µM | HOP-62 > 100 µM | SF-268 49.7 µM | 786-0 87.5 µM | ACHN 38.2 µM | LOX IMVI 79.1 µM | MDA-MB-435 27.2 µM | RPMI-8226 23.5 µM | PC-3 34.4 µM | UACC-62 43.4 µM | KM12 36.5 µM | A498 53.2 µM | SK-MEL-5 17.1 µM

COc1ccc(-c2c3c(n(C4OC(CO)C(O)C(O)C4O)c(=S)c2C#N)CCC3)cc1 (configuration not stated)
inactive: UACC-257 > 100 µM | SNB-75 59.4 µM | U-251 37.1 µM | OVCAR-4 79.1 µM | HT-29 40.1 µM | MCF7 37.6 µM | HOP-62 40 µM | SF-268 62.8 µM | 786-0 36 µM | ACHN 38.5 µM | LOX IMVI 42.1 µM | MDA-MB-435 33.3 µM | RPMI-8226 49.5 µM | PC-3 41.3 µM | UACC-62 42 µM | KM12 59.3 µM | Malme-3M 57.8 µM | SK-MEL-5 14.8 µM

CCCCCCOP(=O)(OCCCCCC)OC(C(=O)OC)C(F)(F)F (configuration not stated)
inactive: UACC-257 > 100 µM | SNB-75 > 100 µM | U-251 > 100 µM | OVCAR-4 > 100 µM | HT-29 > 100 µM | MCF7 > 100 µM | HOP-62 > 100 µM | SF-268 > 100 µM | 786-0 > 100 µM | ACHN > 100 µM | LOX IMVI > 100 µM | MDA-MB-435 > 100 µM | RPMI-8226 > 100 µM | PC-3 > 100 µM | UACC-62 > 100 µM | KM12 > 100 µM | Malme-3M > 100 µM | SK-MEL-5 > 100 µM

CCOC(=O)CCC(NC(=O)OCc1ccccc1)C(=O)NC(CCC(=O)OCC)C(=O)NC(Cc1ccc([N+](=O)[O-])cc1)C(=O)NC(CCC(=O)OCC)C(=O)NC(CCC(=O)OCC)C(=O)OCC (configuration not stated) (Cbz-E(OEt)E(OEt)[Phe(4-NO2)]E(OEt)E(OEt)-OEt; configuration not given here)
inactive: UACC-257 > 100 µM | SNB-75 > 100 µM | U-251 > 100 µM | OVCAR-4 > 100 µM | HT-29 > 100 µM | MCF7 > 100 µM | HOP-62 > 100 µM | 786-0 > 100 µM | ACHN > 100 µM | LOX IMVI > 100 µM | MDA-MB-435 > 100 µM | RPMI-8226 > 100 µM | PC-3 > 100 µM | UACC-62 > 100 µM | KM12 > 100 µM | Malme-3M > 100 µM | SK-MEL-5 > 100 µM

COC1CC(NC(=O)C(F)(F)F)C(OC(C)=O)C(C)O1 (configuration not stated)
inactive: UACC-257 > 100 µM | SNB-75 > 100 µM | U-251 > 100 µM | OVCAR-4 > 100 µM | HT-29 > 100 µM | MCF7 > 100 µM | HOP-62 > 100 µM | SF-268 > 100 µM | 786-0 > 100 µM | ACHN > 100 µM | LOX IMVI > 100 µM | MDA-MB-435 > 100 µM | RPMI-8226 > 100 µM | PC-3 > 100 µM | UACC-62 > 100 µM | KM12 > 100 µM | Malme-3M > 100 µM | SK-MEL-5 > 100 µM

COc1cc(Cc2cc3c(c(C(=O)O)c2Br)OCO3)cc(OC)c1OC
inactive: UACC-257 > 100 µM | SNB-75 > 100 µM | U-251 > 100 µM | OVCAR-4 > 100 µM | HT-29 > 100 µM | MCF7 62.1 µM | HOP-62 > 100 µM | 786-0 > 100 µM | ACHN > 100 µM | LOX IMVI 83.8 µM | MDA-MB-435 49.9 µM | PC-3 > 100 µM | UACC-62 33.5 µM | KM12 39.9 µM | Malme-3M 57.8 µM | A498 > 100 µM | SK-MEL-5 51.1 µM

From ChEMBL document CHEMBL1201862, “PubChem BioAssay data set” (2004)
